Where two headings read alike, the source gives them in different places.
Assays:
[1] = cited from earlier work
[2] = cited from earlier work; remark: listed apart in the source
[3] = Tissue distribution of selenium-75-labelled sterols in rats, sixth day post-injection; assay type: in vivo, rats of the C.F.Y. strain; details: tail vein, dose: 1, 7: 40 μCi, 6: 50 μCi, 3: 30 μCi, 4: 1.5 μCi, 5: 10 μCi, 8: 6.3 μCi; for % dose kg./g. in Ovaries: female rats; for % dose kg./g. in Adrenals / % dose kg./g. in Blood / % dose kg./g. in Kidneys / % dose kg./g. in Liver / % dose kg./g. in Muscle: male and female rats; for % dose kg./g. in Testes: male rats; for Concentration Ratio; Adrenals: Kidneys / Concentration Ratio; Adrenals: Liver / Concentration Ratio; Adrenals: Muscle / Concentration Ratio; Adrenals: Ovaries / Concentration Ratio; Adrenals: Testes / Concentration Ratio; Adrenals: Blood: rats; for Concentration Ratio; Adrenals: Blood: 8640 min
Procedure: The tissue distribution and target to non-target concentration ratios for seven compounds were studied in male and female rats (150-180 g) of the C.F.Y. strain. Each compound (in a volume of 0.3ml) was injected via the tail vein into two male and two female rats. The animals were then housed in separate metabolism cages prior to sacrifice and dissecting on the sixth day post-injection.

[4] = Tissue distribution in a female dog, 6th day post-injection; assay type: in vivo
Procedure: 250μCi of 6β-methylselenomethyl-19-norcholest-5(10)-en-[…]-^75 Se was intravenously injected into a female dog (13.7 kg). The dog was housed in a metabolism cage for the daily collection of urine and faeces. On the 6th day post-injection the animal was sacrificed (i.v. sodium pento-barbitone)and tissue and organ samples collected. The weighed samples were then assayed for radioactive content.
The resulting tissue distribution (expressed in terms of % dose kg/g) is tabulated below: […]

[5] = Adrenal uptake of 75Se in patients with Cushing Syndrome (gamma camera scans); assay type: in vivo, humans
Procedure: (§1) Two patients with Cushing Syndrome were injected intravenously with 500μCi of 6β-methylselenomethyl-19-norcholest-5(10)-en-3β-ol-^75 Se formulated in normal saline stabilized with polysorbate. Repeated gamma camera scans and whole body-, urine- and blood measurements were made during a period of two weeks post injection. In one patient a maximum uptake of 17μCi in the left adrenal region was measured, the removed adrenal cortex adenoma, weight 66 g, containing 15μCi of ^75 Se.

[6] = Adrenal scanning/visualization in patients, comparison of 75Se compound with 19-iodocholesterol-131I; assay type: in vivo, humans
Procedure: as §1
Furthermore, the ^75 Se compound allowed scans to be taken at an earlier point of time after injection than was the case with 19-iodocholesterol-^131 I (2-3 days in contrast to 6-10 days p.i.).

[7] = 250μCi intravenous, female dog, 6th day
[8] = 250μCi intravenous, female dog, daily collection to 6th day

Structure (SMILES): C[75Se]C[C@]12CC[C@H](O)CC1=CC[C@@H]1[C@@H]2CC[C@]2(C)[C@@H]([C@H](C)CCCC(C)C)CC[C@@H]12 [19-methylselenocholesterol]
- concentration in rat adrenal tissue [1]: concentrated strongly in rat adrenal tissue
- concentration in / uptake into human adrenal glands [2]: poor
- concentration in the adrenal cortex ([2]; human): appears not to be concentrated in the adrenal cortex
- uptake into pheochromocytomas of human adrenal medullary tissue ([2]; some instances): some instances have been cited of its uptake into pheochromocytomas

Structure (SMILES): C[75Se]C[C@@H]1C[C@@H]2[C@H](CC[C@]3(C)[C@@H]([C@H](C)CCCC(C)C)CC[C@@H]23)C2=C1C[C@@H](O)CC2 [Example 1, 6β-methylselenomethyl-19-norcholest-5(10)-en-3β-ol-^75 Se]
- % dose kg./g. in Ovaries [3]: 2.356 % dose kg./g.
- % dose kg./g. in Adrenals [3]: 9.885 % dose kg./g.
- % dose kg./g. in Blood [3]: 0.024 % dose kg./g.
- % dose kg./g. in Kidneys [3]: 0.116 % dose kg./g.
- % dose kg./g. in Liver [3]: 0.054 % dose kg./g.
- % dose kg./g. in Muscle [3]: 0.023 % dose kg./g.
- % dose kg./g. in Testes [3]: 0.044 % dose kg./g.
- Concentration Ratio; Adrenals: Kidneys [3]: 91.9
- Concentration Ratio; Adrenals: Liver [3]: 163.9
- Concentration Ratio; Adrenals: Muscle [3]: 436.7
- Concentration Ratio; Adrenals: Ovaries [3]: 4.5
- Concentration Ratio; Adrenals: Testes [3]: 211.9
- Concentration Ratio; Adrenals: Blood [3]: 433.1
- % dose kg/g, Adrenals [4, 7]: 7.240 % dose kg/g
- % dose kg/g, Bile [4, 7]: 0.485 % dose kg/g
- % dose kg/g, Blood [4, 7]: 0.066 % dose kg/g
- % dose kg/g, Kidneys [4, 7]: 0.175 % dose kg/g
- % dose kg/g, Liver [4, 7]: 0.143 % dose kg/g
- % dose kg/g, Lungs [4, 7]: 0.164 % dose kg/g
- % dose kg/g, Muscle [4, 7]: 0.042 % dose kg/g
- % dose kg/g, Ovaries [4, 7]: 1.571 % dose kg/g
- % dose kg/g, Spleen [4, 7]: 0.083 % dose kg/g
- % dose kg/g, adrenal cortex [4, 7]: 9.925 % dose kg/g
- % of dose, Adrenals [4, 7]: 0.622 % of dose
- % of dose, Blood [4, 7]: 5.989 % of dose
- % of dose, Kidneys [4, 7]: 0.712 % of dose
- % of dose, Liver [4, 7]: 3.894 % of dose
- % of dose, Lungs [4, 7]: 1.136 % of dose
- % of dose, Ovaries [4, 7]: 0.303 % of dose
- % of dose, Spleen [4, 7]: 0.528 % of dose
- % of dose, Total Faeces [4, 8]: 27.691 % of dose
- % of dose, Total Urine [4, 8]: 1.953 % of dose
- concentration in the adrenal cortex ([4]; dogs): concentrates in the adrenal cortex
- 75Se uptake per gram of tissue in the adrenal adenoma ([5]; compared with 19-iodocholesterol-131I in five other adrenal cortex adenomas): higher than that of 19-iodocholesterol-^131 I
- concentration in the adrenal glands ([5]; humans): concentrate in the adrenal glands of humans
- maximum uptake in the left adrenal region ([5]; one patient with Cushing Syndrome, 500μCi intravenous, two weeks of scans): 17 μCi
- 75Se uptake in each of both adrenal regions ([5]; other patient with Cushing Syndrome, 500μCi intravenous): 3 μCi
- 75Se contained in removed adrenal cortex adenoma ([5]; same patient, adenoma weight 66 g, 500μCi intravenous): 15 μCi
- quality of adrenal scans compared with 19-iodocholesterol-131I ([6]; comparable cases with adrenal cortex adenomas or hyperplasia, smaller dose): equally good adrenal scans
- visualization of adrenal glands and detection of adrenal cortex adenomas ([6]; humans): enabling their visualization and the detection of adrenal cortex adenomas
- time after injection at which scans could be taken ([6]; p.i.): 2 to 3 days
- dose giving equally good adrenal scans ([6]; per kg body weight, adrenal cortex adenomas or hyperplasia): 7 μCi/kg

Structure (SMILES): CCCC[75Se]C[C@@H]1C[C@@H]2[C@H](CC[C@]3(C)[C@@H]([C@H](C)CCCC(C)C)CC[C@@H]23)C2=C1C[C@@H](O)CC2 [Example 3, 6β-butylselenomethyl-19-norcholest-5(10)-en-3β-ol-^75 Se]
- % dose kg./g. in Ovaries [3]: 2.553 % dose kg./g.
- % dose kg./g. in Adrenals [3]: 7.563 % dose kg./g.
- % dose kg./g. in Blood [3]: 0.009 % dose kg./g.
- % dose kg./g. in Kidneys [3]: 0.052 % dose kg./g.
- % dose kg./g. in Liver [3]: 0.096 % dose kg./g.
- % dose kg./g. in Muscle [3]: 0.012 % dose kg./g.
- % dose kg./g. in Testes [3]: 0.023 % dose kg./g.
- Concentration Ratio; Adrenals: Kidneys [3]: 144.8
- Concentration Ratio; Adrenals: Liver [3]: 79.0
- Concentration Ratio; Adrenals: Muscle [3]: 809.6
- Concentration Ratio; Adrenals: Ovaries [3]: 4.0
- Concentration Ratio; Adrenals: Testes [3]: 268.3
- Concentration Ratio; Adrenals: Blood [3]: 581.9

Structure (SMILES): CC(C)CCC[C@@H](C)[C@H]1CC[C@H]2[C@@H]3C[C@@H](C[75Se]C4CCCCC4)C4=C(CC[C@H](O)C4)[C@H]3CC[C@]12C [Example 4, 6β-cyclohexylselenomethyl-19-norcholest-5(10)-en-3β-ol-^75 Se]
- % dose kg./g. in Ovaries [3]: 2.568 % dose kg./g.
- % dose kg./g. in Adrenals [3]: 3.609 % dose kg./g.
- % dose kg./g. in Blood [3]: 0.026 % dose kg./g.
- % dose kg./g. in Kidneys [3]: 0.038 % dose kg./g.
- % dose kg./g. in Liver [3]: 0.148 % dose kg./g.
- % dose kg./g. in Muscle [3]: 0.012 % dose kg./g.
- % dose kg./g. in Testes [3]: 0.034 % dose kg./g.
- Concentration Ratio; Adrenals: Kidneys [3]: 75.1
- Concentration Ratio; Adrenals: Liver [3]: 24.9
- Concentration Ratio; Adrenals: Muscle [3]: 303.1
- Concentration Ratio; Adrenals: Ovaries [3]: 1.6
- Concentration Ratio; Adrenals: Testes [3]: 89.8
- Concentration Ratio; Adrenals: Blood [3]: 137.4

Structure (SMILES): CC(C)CCC[C@@H](C)[C@H]1CC[C@H]2[C@@H]3C[C@@H](C[75Se]Cc4ccccc4)C4=C(CC[C@H](O)C4)[C@H]3CC[C@]12C [Example 5, 6β-benzylselenomethyl-19-norcholest-5(10)-en-3β-ol-^75 Se]
- % dose kg./g. in Ovaries [3]: 2.425 % dose kg./g.
- % dose kg./g. in Adrenals [3]: 5.286 % dose kg./g.
- % dose kg./g. in Blood [3]: 0.042 % dose kg./g.
- % dose kg./g. in Kidneys [3]: 0.083 % dose kg./g.
- % dose kg./g. in Liver [3]: 0.393 % dose kg./g.
- % dose kg./g. in Muscle [3]: 0.015 % dose kg./g.
- % dose kg./g. in Testes [3]: 0.042 % dose kg./g.
- Concentration Ratio; Adrenals: Kidneys [3]: 63.4
- Concentration Ratio; Adrenals: Liver [3]: 13.4
- Concentration Ratio; Adrenals: Muscle [3]: 355.3
- Concentration Ratio; Adrenals: Ovaries [3]: 2.6
- Concentration Ratio; Adrenals: Testes [3]: 101.4
- Concentration Ratio; Adrenals: Blood [3]: 126.3

Structure (SMILES): C[75Se]C[C@@H]1C[C@@H]2[C@H](CC[C@]3(C)[C@@H]([C@H](C)CCCC(C)C)CC[C@@H]23)C2=C1C[C@@H](OC(C)=O)CC2 [Example 6, 6β-methylselenomethyl-19-norcholest-5(10)-en-3β-ol-acetate-^75 Se]
- % dose kg./g. in Ovaries [3]: 3.232 % dose kg./g.
- % dose kg./g. in Adrenals [3]: 12.561 % dose kg./g.
- % dose kg./g. in Blood [3]: 0.025 % dose kg./g.
- % dose kg./g. in Kidneys [3]: 0.108 % dose kg./g.
- % dose kg./g. in Liver [3]: 0.074 % dose kg./g.
- % dose kg./g. in Muscle [3]: 0.022 % dose kg./g.
- % dose kg./g. in Testes [3]: 0.041 % dose kg./g.
- Concentration Ratio; Adrenals: Kidneys [3]: 116.0
- Concentration Ratio; Adrenals: Liver [3]: 161.1
- Concentration Ratio; Adrenals: Muscle [3]: 536.3
- Concentration Ratio; Adrenals: Ovaries [3]: 5.7
- Concentration Ratio; Adrenals: Testes [3]: 166.4
- Concentration Ratio; Adrenals: Blood [3]: 469.2

Structure (SMILES): CC(C)CCC[C@@H](C)[C@H]1CC[C@H]2[C@@H]3C[C@@H](C[75Se](C)=O)C4=C(CC[C@H](O)C4)[C@H]3CC[C@]12C (stereo partly drawn) [Example 7, 6β-methylselenomethyl-19-norcholest-5(10)-en-3β-olselenoxide-^75 Se]
- % dose kg./g. in Ovaries [3]: 0.817 % dose kg./g.
- % dose kg./g. in Adrenals [3]: 4.284 % dose kg./g.
- % dose kg./g. in Blood [3]: 0.022 % dose kg./g.
- % dose kg./g. in Kidneys [3]: 0.087 % dose kg./g.
- % dose kg./g. in Liver [3]: 0.091 % dose kg./g.
- % dose kg./g. in Muscle [3]: 0.016 % dose kg./g.
- % dose kg./g. in Testes [3]: 0.046 % dose kg./g.
- Concentration Ratio; Adrenals: Kidneys [3]: 49.5
- Concentration Ratio; Adrenals: Liver [3]: 48.3
- Concentration Ratio; Adrenals: Muscle [3]: 274
- Concentration Ratio; Adrenals: Ovaries [3]: 5.1
- Concentration Ratio; Adrenals: Testes [3]: 95.2
- Concentration Ratio; Adrenals: Blood [3]: 202

Structure (SMILES): CC(C)CCC[C@@H](C)[C@H]1CC[C@H]2[C@@H]3C[C@@H](C[75Se]c4ccccc4)C4=C(CC[C@H](O)C4)[C@H]3CC[C@]12C [Example 8, 6β-phenylselenomethyl-19-norcholest-5(10)-en-3β-ol-^75 Se]
- % dose kg./g. in Ovaries [3]: 2.578 % dose kg./g.
- % dose kg./g. in Adrenals [3]: 5.934 % dose kg./g.
- % dose kg./g. in Blood [3]: 0.021 % dose kg./g.
- % dose kg./g. in Kidneys [3]: 0.062 % dose kg./g.
- % dose kg./g. in Liver [3]: 0.144 % dose kg./g.
- % dose kg./g. in Muscle [3]: 0.015 % dose kg./g.
- % dose kg./g. in Testes [3]: 0.039 % dose kg./g.
- Concentration Ratio; Adrenals: Kidneys [3]: 109.1
- Concentration Ratio; Adrenals: Liver [3]: 40.0
- Concentration Ratio; Adrenals: Muscle [3]: 418.9
- Concentration Ratio; Adrenals: Ovaries [3]: 3.62
- Concentration Ratio; Adrenals: Testes [3]: 171.2
- Concentration Ratio; Adrenals: Blood [3]: 285.8
